Reference: ChEMBL document CHEMBL3991601, “The target landscape of clinical kinase drugs” (Science, 2017)
Calls of active or inactive are those of the source.

Tests used:
Ephrin type-A receptor 5 = Ephrin type-A receptor 5 (Homo sapiens, UniProt P54756)
[1] = biological target: Inosine-5'-monophosphate dehydrogenase 2 (Homo sapiens, UniProt P12268)
[2] = biological target: Dual specificity mitogen-activated protein kinase kinase 1 (Homo sapiens, UniProt Q02750)
[3] = biological target: TRAF2 and NCK-interacting protein kinase (Homo sapiens, UniProt Q9UKE5)
Chain of TRAF2 and NCK-interacting protein kinase (Q9UKE5 whole entry): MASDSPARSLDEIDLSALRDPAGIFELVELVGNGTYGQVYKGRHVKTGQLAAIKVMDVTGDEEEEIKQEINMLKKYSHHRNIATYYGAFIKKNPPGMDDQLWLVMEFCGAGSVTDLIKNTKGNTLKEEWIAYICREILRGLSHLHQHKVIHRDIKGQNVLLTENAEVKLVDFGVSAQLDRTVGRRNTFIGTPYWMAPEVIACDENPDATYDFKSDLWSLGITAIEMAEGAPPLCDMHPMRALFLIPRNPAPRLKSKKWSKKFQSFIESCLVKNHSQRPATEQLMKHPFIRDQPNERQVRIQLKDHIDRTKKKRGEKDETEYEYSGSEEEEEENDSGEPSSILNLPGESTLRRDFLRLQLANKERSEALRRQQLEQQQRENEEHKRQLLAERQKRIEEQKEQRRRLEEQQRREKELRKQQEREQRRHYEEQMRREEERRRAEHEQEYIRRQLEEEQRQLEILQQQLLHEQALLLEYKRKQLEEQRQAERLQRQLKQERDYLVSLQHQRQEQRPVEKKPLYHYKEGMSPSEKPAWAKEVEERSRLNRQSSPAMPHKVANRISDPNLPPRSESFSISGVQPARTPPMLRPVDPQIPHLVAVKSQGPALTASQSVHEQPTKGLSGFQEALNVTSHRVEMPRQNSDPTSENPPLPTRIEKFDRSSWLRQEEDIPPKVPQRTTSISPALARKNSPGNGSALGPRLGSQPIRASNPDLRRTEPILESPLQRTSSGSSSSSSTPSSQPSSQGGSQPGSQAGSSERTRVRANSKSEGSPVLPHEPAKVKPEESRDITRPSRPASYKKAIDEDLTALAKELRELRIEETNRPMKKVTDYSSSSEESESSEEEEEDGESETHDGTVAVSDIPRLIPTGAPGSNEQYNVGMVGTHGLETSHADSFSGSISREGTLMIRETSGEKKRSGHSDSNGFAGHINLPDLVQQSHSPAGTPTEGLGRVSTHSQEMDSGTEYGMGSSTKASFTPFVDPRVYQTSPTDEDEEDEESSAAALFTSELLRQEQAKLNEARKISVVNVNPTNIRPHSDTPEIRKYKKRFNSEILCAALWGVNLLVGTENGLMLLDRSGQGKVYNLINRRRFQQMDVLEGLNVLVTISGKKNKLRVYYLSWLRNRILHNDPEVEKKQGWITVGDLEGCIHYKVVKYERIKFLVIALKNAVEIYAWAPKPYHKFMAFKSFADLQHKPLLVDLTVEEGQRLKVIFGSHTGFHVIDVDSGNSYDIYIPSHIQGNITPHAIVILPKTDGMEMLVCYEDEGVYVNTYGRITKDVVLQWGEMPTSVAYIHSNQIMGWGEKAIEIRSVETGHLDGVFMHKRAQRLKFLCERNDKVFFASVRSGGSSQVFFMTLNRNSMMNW

[4] = biological target: Ribosomal protein S6 kinase beta-1 (Homo sapiens, UniProt P23443)
Chain of Ribosomal protein S6 kinase beta-1 (P23443 whole entry): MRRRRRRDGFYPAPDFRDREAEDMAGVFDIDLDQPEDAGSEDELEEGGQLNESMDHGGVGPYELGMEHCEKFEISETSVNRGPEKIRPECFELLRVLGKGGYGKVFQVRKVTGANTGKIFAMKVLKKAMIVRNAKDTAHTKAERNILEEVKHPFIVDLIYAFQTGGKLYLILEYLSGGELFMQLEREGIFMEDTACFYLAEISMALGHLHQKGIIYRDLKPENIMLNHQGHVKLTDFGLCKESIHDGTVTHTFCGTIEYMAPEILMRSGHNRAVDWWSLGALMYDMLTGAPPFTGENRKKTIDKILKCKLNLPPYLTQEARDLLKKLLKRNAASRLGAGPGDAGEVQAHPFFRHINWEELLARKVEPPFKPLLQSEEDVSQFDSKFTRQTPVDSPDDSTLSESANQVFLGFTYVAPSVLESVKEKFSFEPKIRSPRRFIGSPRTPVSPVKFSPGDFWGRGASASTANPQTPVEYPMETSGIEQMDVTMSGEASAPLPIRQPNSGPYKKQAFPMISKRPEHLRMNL

[5] = biological target: Receptor-interacting serine/threonine-protein kinase 3 (Homo sapiens, UniProt Q9Y572)
Chain of Receptor-interacting serine/threonine-protein kinase 3 (Q9Y572 whole entry): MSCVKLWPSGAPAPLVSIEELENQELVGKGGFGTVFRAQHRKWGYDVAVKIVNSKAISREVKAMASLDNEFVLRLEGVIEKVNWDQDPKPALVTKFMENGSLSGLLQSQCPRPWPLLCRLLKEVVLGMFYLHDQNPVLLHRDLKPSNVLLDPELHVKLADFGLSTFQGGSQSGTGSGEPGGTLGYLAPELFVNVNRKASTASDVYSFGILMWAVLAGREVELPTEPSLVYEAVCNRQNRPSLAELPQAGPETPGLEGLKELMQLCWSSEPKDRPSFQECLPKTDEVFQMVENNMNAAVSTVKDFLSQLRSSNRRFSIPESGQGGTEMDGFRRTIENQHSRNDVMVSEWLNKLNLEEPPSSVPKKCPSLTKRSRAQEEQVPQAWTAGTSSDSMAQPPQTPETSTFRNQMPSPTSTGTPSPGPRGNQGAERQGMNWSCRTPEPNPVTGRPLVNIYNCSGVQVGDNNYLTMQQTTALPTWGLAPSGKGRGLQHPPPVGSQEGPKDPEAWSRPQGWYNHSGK

Adenosine kinase = Adenosine kinase (Homo sapiens, UniProt P55263)
Chain of Adenosine kinase (P55263 whole entry): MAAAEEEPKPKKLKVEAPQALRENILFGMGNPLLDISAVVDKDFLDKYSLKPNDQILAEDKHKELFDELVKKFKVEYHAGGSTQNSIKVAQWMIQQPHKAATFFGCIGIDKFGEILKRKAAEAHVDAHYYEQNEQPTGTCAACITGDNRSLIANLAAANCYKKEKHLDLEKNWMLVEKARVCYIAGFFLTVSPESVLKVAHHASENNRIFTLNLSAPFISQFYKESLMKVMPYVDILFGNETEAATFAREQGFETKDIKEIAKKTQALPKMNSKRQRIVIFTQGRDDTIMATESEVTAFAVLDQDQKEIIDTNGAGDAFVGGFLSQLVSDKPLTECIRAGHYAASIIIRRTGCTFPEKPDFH

[6] = biological target: Chromodomain-helicase-DNA-binding protein 4 (Homo sapiens, UniProt Q14839)
[7] = biological target: T1, Serine/threonine-protein kinase Nek2 (Homo sapiens, UniProt P51955)
T1 sequence (P51955 whole entry): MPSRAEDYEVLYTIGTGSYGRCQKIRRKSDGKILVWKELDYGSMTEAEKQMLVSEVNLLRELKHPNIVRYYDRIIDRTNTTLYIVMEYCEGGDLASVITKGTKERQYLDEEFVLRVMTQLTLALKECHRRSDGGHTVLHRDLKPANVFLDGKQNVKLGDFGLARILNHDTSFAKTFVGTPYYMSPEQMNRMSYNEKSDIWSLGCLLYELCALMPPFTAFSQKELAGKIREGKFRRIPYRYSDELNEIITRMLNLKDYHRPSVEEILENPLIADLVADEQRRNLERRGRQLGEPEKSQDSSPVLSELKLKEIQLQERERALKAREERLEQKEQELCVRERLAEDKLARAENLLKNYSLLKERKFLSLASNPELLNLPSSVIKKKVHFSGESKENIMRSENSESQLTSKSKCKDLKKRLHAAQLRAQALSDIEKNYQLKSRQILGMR

Septin-9 = biological target: T2, Septin-9 (Homo sapiens, UniProt Q9UHD8)
T2 sequence (Q9UHD8 whole entry): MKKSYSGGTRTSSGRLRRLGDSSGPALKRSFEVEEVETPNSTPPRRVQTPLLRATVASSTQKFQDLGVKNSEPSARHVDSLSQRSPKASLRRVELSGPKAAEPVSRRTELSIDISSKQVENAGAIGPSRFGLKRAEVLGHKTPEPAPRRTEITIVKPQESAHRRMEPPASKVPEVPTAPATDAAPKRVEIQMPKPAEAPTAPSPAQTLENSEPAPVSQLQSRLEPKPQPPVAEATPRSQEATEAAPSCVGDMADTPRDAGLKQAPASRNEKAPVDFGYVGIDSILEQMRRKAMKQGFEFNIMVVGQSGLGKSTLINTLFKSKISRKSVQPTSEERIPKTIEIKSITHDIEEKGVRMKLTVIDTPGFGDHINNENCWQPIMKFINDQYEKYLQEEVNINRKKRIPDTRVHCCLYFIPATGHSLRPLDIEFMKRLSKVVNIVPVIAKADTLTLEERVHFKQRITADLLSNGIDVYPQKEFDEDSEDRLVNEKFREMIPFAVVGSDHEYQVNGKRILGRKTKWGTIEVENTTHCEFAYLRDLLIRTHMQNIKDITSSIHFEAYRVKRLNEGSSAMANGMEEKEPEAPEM

[8] = biological target: Adenylate kinase 2, mitochondrial (Homo sapiens, UniProt P54819)
[9] = biological target: Serine/threonine-protein kinase PAK 2 (Homo sapiens, UniProt Q13177)
Chain of Serine/threonine-protein kinase PAK 2 (Q13177 whole entry): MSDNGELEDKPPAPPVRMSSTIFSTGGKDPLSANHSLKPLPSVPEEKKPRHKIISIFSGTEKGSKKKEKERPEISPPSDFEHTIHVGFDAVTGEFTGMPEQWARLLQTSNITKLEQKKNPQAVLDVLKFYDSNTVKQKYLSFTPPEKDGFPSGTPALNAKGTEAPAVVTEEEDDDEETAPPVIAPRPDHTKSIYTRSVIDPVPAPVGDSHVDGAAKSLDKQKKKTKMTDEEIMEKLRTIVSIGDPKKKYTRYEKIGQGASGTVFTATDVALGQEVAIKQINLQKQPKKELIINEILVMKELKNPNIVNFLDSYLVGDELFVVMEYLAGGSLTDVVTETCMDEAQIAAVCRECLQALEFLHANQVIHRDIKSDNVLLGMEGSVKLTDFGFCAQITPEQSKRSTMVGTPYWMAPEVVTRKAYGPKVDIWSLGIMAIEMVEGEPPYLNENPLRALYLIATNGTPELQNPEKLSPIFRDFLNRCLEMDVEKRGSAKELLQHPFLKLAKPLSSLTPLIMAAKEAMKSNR

Ephrin type-A receptor 7 = Ephrin type-A receptor 7 (Homo sapiens, UniProt Q15375)
[10] = biological target: T3, Serine/threonine-protein kinase Nek1 (Homo sapiens, UniProt Q96PY6)
T3 sequence (Q96PY6 whole entry): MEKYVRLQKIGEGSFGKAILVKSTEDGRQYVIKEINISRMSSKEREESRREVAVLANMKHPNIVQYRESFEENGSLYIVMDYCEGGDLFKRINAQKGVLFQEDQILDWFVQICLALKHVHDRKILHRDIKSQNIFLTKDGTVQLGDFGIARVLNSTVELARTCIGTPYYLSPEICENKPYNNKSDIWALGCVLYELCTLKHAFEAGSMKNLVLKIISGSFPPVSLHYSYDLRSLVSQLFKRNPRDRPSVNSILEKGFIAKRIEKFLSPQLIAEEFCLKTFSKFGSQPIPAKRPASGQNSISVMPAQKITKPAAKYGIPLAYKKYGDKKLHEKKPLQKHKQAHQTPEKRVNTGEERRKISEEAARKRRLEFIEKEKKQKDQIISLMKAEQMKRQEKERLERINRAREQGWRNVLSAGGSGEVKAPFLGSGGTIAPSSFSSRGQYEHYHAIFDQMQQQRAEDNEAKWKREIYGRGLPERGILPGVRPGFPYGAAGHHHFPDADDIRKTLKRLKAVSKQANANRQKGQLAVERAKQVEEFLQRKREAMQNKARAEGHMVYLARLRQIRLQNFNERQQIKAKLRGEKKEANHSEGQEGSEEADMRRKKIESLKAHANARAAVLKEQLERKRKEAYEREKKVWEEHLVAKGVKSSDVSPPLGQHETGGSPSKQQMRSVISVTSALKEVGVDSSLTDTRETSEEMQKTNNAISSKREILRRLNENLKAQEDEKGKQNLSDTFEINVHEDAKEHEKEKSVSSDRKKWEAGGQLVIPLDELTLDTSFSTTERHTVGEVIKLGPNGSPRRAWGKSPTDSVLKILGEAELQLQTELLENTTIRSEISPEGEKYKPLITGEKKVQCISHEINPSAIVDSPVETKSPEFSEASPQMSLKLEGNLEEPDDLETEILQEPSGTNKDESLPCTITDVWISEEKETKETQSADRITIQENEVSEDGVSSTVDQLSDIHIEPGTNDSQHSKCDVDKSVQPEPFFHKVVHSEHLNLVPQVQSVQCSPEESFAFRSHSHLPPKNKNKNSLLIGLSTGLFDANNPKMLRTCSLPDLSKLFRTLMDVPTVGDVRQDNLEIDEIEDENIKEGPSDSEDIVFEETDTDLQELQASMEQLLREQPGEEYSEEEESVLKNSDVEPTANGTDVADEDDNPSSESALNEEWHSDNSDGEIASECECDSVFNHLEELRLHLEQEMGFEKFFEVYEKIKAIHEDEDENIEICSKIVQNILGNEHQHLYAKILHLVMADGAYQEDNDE
Note: in the data inactive means no Kd found up to 30 µM.

Chain of Ephrin type-A receptor 5 (P54756 whole entry): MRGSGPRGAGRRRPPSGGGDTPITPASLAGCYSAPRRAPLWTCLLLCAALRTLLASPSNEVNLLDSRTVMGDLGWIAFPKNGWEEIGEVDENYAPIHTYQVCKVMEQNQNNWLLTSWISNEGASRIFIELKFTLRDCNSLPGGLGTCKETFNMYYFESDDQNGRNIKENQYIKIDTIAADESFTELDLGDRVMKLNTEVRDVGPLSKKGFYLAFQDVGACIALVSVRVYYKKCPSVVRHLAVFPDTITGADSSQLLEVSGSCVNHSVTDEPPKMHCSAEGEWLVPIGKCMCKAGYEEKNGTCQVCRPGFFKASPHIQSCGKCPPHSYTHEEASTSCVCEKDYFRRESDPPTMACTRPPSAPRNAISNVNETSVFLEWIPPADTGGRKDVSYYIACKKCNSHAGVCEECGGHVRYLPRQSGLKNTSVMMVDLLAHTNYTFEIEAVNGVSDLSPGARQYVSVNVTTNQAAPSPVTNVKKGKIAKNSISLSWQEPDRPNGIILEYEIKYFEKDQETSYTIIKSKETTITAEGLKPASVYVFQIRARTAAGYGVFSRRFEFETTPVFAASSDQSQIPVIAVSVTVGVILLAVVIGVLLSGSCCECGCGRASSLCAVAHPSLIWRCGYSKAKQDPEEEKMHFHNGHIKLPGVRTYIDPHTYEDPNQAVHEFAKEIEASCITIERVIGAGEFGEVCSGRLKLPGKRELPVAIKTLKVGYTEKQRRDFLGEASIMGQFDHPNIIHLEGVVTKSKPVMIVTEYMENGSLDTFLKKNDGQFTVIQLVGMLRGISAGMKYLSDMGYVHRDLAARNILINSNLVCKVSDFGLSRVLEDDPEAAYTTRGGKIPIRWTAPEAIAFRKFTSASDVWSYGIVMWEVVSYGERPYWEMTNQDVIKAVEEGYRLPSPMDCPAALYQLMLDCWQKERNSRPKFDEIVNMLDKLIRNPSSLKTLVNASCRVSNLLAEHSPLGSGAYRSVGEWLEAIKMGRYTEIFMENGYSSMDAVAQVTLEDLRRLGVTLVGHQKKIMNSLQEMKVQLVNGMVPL
Chain of Dual specificity mitogen-activated protein kinase kinase 1 (Q02750 whole entry): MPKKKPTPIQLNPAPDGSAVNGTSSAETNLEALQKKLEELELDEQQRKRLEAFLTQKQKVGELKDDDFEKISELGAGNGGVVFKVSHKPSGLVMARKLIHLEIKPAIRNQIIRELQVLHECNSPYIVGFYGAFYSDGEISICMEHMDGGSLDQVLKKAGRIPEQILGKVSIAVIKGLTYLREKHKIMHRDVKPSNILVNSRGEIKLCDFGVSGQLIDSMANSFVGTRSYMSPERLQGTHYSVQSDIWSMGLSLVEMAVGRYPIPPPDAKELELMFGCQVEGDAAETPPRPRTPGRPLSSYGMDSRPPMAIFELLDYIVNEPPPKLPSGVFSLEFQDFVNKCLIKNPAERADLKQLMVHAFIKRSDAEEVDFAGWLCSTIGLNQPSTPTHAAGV

O=c1[nH]ccc2cc(OC3CCNCC3)ccc12 [SAR-407899 FREE BASE]
Kd (Ephrin type-A receptor 5): > 30 µM (inactive)
Kd [1]: > 30 µM (inactive)
Kd [2]: > 30 µM (inactive)
Kd [3]: > 30 µM (inactive)
Kd [4]: > 30 µM (inactive)
Kd [5]: > 30 µM (inactive)
Kd (Adenosine kinase): > 30 µM (inactive)
Kd [6]: > 30 µM (inactive)
Kd [7]: > 30 µM (inactive)
Kd (Septin-9): > 30 µM (inactive)
Kd [8]: > 30 µM (inactive)
Kd [9]: > 30 µM (inactive)
Kd (Ephrin type-A receptor 7): > 30 µM (inactive)
Kd [10]: > 30 µM (inactive)

Cn1cc(-c2cnn3c(N)c(Br)c([C@@H]4CCCNC4)nc23)cn1 [SCH-900776]
Kd (Ephrin type-A receptor 5): > 30 µM (inactive)
Kd [1]: > 30 µM (inactive)
Kd [2]: > 30 µM (inactive)
Kd [3]: > 30 µM (inactive)
Kd [4]: > 30 µM (inactive)
Kd [5]: > 30 µM (inactive)
Kd (Adenosine kinase): > 30 µM (inactive)
Kd [6]: > 30 µM (inactive)
Kd [7]: > 30 µM (inactive)
Kd (Septin-9): > 30 µM (inactive)
Kd [8]: > 30 µM (inactive)
Kd [9]: > 30 µM (inactive)
Kd (Ephrin type-A receptor 7): > 30 µM (inactive)
Kd [10]: > 30 µM (inactive)

CO[C@H]1C[C@@H]2CC[C@@H](C)[C@@](O)(O2)C(=O)C(=O)N2CCCC[C@H]2C(=O)O[C@H]([C@H](C)C[C@@H]2CC[C@@H](OC(=O)C(C)(CO)CO)[C@H](OC)C2)CC(=O)[C@H](C)/C=C(\C)[C@@H](O)[C@@H](OC)C(=O)[C@H](C)C[C@H](C)/C=C/C=C/C=C/1C [TEMSIROLIMUS]
Kd (Ephrin type-A receptor 5): > 30 µM (inactive)
Kd [1]: > 30 µM (inactive)
Kd [2]: > 30 µM (inactive)
Kd [3]: > 30 µM (inactive)
Kd [4]: > 30 µM (inactive)
Kd [5]: > 30 µM (inactive)
Kd (Adenosine kinase): > 30 µM (inactive)
Kd [6]: > 30 µM (inactive)
Kd [7]: > 30 µM (inactive)
Kd (Septin-9): > 30 µM (inactive)
Kd [8]: > 30 µM (inactive)
Kd [9]: > 30 µM (inactive)
Kd (Ephrin type-A receptor 7): > 30 µM (inactive)
Kd [10]: > 30 µM (inactive)

COc1cc2c(Nc3ccc(Cl)c(Cl)c3F)ncnc2cc1OC[C@@H]1C[C@@H]2CN(C)C[C@@H]2C1 [TESEVATINIB]
Kd (Ephrin type-A receptor 5): > 30 µM (inactive)
Kd [1]: > 30 µM (inactive)
Kd [2]: > 30 µM (inactive)
Kd [3]: > 30 µM (inactive)
Kd [4]: > 30 µM (inactive)
Kd [5]: 0.366 µM (active)
Kd (Adenosine kinase): > 30 µM (inactive)
Kd [6]: > 30 µM (inactive)
Kd [7]: > 30 µM (inactive)
Kd (Septin-9): > 30 µM (inactive)
Kd [8]: > 30 µM (inactive)
Kd [9]: > 30 µM (inactive)
Kd (Ephrin type-A receptor 7): 0.022 µM
Kd [10]: > 30 µM (inactive)

O=C(Cc1ccc(-c2ccc(OCCN3CCOCC3)cc2)cn1)NCc1ccccc1 [TIRBANIBULIN]
Kd (Ephrin type-A receptor 5): > 30 µM (inactive)
Kd [1]: > 30 µM (inactive)
Kd [2]: > 30 µM (inactive)
Kd [3]: > 30 µM (inactive)
Kd [4]: > 30 µM (inactive)
Kd [5]: > 30 µM (inactive)
Kd (Adenosine kinase): > 30 µM (inactive)
Kd [6]: > 30 µM (inactive)
Kd [7]: > 30 µM (inactive)
Kd (Septin-9): > 30 µM (inactive)
Kd [8]: > 30 µM (inactive)
Kd [9]: > 30 µM (inactive)
Kd (Ephrin type-A receptor 7): > 30 µM (inactive)
Kd [10]: > 30 µM (inactive)

C[C@@H](NC(=O)c1ncnc(N)c1Cl)c1ncc(C(=O)Nc2cc(C(F)(F)F)c(Cl)cn2)s1 [TOVORAFENIB]
Kd (Ephrin type-A receptor 5): > 30 µM (inactive)
Kd [1]: > 30 µM (inactive)
Kd [2]: > 30 µM (inactive)
Kd [3]: > 30 µM (inactive)
Kd [4]: > 30 µM (inactive)
Kd [5]: 1.8 µM (active)
Kd (Adenosine kinase): > 30 µM (inactive)
Kd [6]: > 30 µM (inactive)
Kd [7]: > 30 µM (inactive)
Kd (Septin-9): > 30 µM (inactive)
Kd [8]: > 30 µM (inactive)
Kd [9]: > 30 µM (inactive)
Kd (Ephrin type-A receptor 7): > 30 µM (inactive)
Kd [10]: > 30 µM (inactive)

Cc1cc(Nc2ncnc3ccc(NC4=NC(C)(C)CO4)cc23)ccc1Oc1ccn2ncnc2c1 [TUCATINIB]
Kd (Ephrin type-A receptor 5): > 30 µM (inactive)
Kd [1]: > 30 µM (inactive)
Kd [2]: > 30 µM (inactive)
Kd [3]: > 30 µM (inactive)
Kd [4]: > 30 µM (inactive)
Kd [5]: 1.06 µM
Kd (Adenosine kinase): > 30 µM (inactive)
Kd [6]: > 30 µM (inactive)
Kd [7]: > 30 µM (inactive)
Kd (Septin-9): > 30 µM (inactive)
Kd [8]: > 30 µM (inactive)
Kd [9]: > 30 µM (inactive)
Kd (Ephrin type-A receptor 7): > 30 µM (inactive)
Kd [10]: > 30 µM (inactive)

Cn1ncc(Cl)c1-c1cc(C(=O)N[C@H](CN)Cc2ccc(F)c(F)c2)oc1Cl [UPROSERTIB]
Kd (Ephrin type-A receptor 5): > 30 µM (inactive)
Kd [1]: > 30 µM (inactive)
Kd [2]: > 30 µM (inactive)
Kd [3]: > 30 µM (inactive)
Kd [4]: > 30 µM (inactive)
Kd [5]: > 30 µM (inactive)
Kd (Adenosine kinase): > 30 µM (inactive)
Kd [6]: > 30 µM (inactive)
Kd [7]: > 30 µM (inactive)
Kd (Septin-9): > 30 µM (inactive)
Kd [8]: > 30 µM (inactive)
Kd [9]: > 30 µM (inactive)
Kd (Ephrin type-A receptor 7): > 30 µM (inactive)
Kd [10]: > 30 µM (inactive)

CN1C/C=C/CCOc2cccc(c2)-c2ccnc(n2)Nc2cccc(c2)C1 [ZOTIRACICLIB]
Kd (Ephrin type-A receptor 5): > 30 µM (inactive)
Kd [1]: > 30 µM (inactive)
Kd [2]: > 30 µM (inactive)
Kd [3]: > 30 µM (inactive)
Kd [4]: > 30 µM (inactive)
Kd [5]: > 30 µM (inactive)
Kd (Adenosine kinase): > 30 µM (inactive)
Kd [6]: > 30 µM (inactive)
Kd [7]: > 30 µM (inactive)
Kd (Septin-9): > 30 µM (inactive)
Kd [8]: > 30 µM (inactive)
Kd [9]: > 30 µM (inactive)
Kd (Ephrin type-A receptor 7): > 30 µM (inactive)
Kd [10]: > 30 µM (inactive)
